Some test systems named below: RPMI-8226; NCI-H460; CAKI-1; IGROV-1; HT-29; HOP-92; MOLT-4; HL-60; KM12; SF-539; HOP-62; CCRF-CEM; OVCAR-8; 786-0; MDA-MB-231; SN12C; COLO 205; M14; NCI-H522; SK-MEL-28.
Holding throughout (experiment): NCI tumour cell line growth inhibition, 48 h

Experimental findings from ChEMBL document CHEMBL1201862, “PubChem BioAssay data set” (2004) are described below.

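1) Cells in 96-well plates. 2) Compound, 48 h, 5 concentrations. 3) Linear interpolation between surrounding doses. 4) Unreached endpoint = highest concentration. Here, GI50 denotes the concentration required for 50% inhibition of growth.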 Calls of active or inactive are those of the source. Rule as the data show it: active = GI50 up to about 1.1 µM and inactive = higher. Bridge positions count the residues as written; N and C are the ends. Peptide text beside a SMILES is read from it. * marks the point of attachment. Cbz = O=C(OCc1ccccc1)*

Take `O=C(CSc1nc(O)nc2[nH]cnc12)Nc1ccccc1`: the GI50 in the test with RPMI-8226, with NCI-H460, in the test on CAKI-1, in the test on IGROV-1, in the test on HT-29 and in the test on HOP-92 was > 100 µM (inactive) throughout. Besides, the GI50 in the test with MOLT-4 is 93.5 µM (inactive); in the test with HL-60 it was > 100 µM (inactive); with KM12, > 100 µM (inactive); in the test on SF-539, 26.2 µM (inactive); in the test on HOP-62, 52.8 µM (inactive); with CCRF-CEM, 33.7 µM (inactive). For the same molecule, the GI50 with OVCAR-8 is > 100 µM (inactive); in the test with 786-0, 57.5 µM (inactive); in the test with MDA-MB-231, > 100 µM (inactive); in the test on SN12C, 48.5 µM (inactive); with COLO 205 it was > 100 µM (inactive); with M14, > 100 µM (inactive). In addition, the results for the GI50 in the test with NCI-H522 and in the test with SK-MEL-28 were 86.9 µM (inactive) and > 100 µM (inactive), respectively.

As for `CNC(=O)C1CCCCNC(=O)CCC(NC(=O)OCc2ccccc2)C(=O)N1` (stereo not drawn) (Cbz-Glu-Lys-NHMe; lactam 1-2; configuration not given here), the GI50 in the test on RPMI-8226, in the test with NCI-H460, with CAKI-1, in the test on IGROV-1, in the test with HT-29 and with HOP-92 was > 100 µM (inactive) each time. Further, the GI50 with MOLT-4, with HL-60, in the test on KM12, in the test on SF-539, in the test with HOP-62 and in the test on CCRF-CEM was > 100 µM (inactive) each time. Further, the GI50 with OVCAR-8, in the test with 786-0, in the test on MDA-MB-231, with SN12C, with COLO 205 and in the test with M14 was > 100 µM (inactive) in each case. The GI50 in the test with NCI-H522 and in the test with SK-MEL-28 was > 100 µM (inactive) in each case.

`[N-]=[N+]=Nc1ccc(CNc2cc(=O)[nH]c(=O)[nH]2)cc1`: the GI50 is > 100 µM (inactive) in the test on RPMI-8226; > 100 µM (inactive) in the test on NCI-H460; > 100 µM (inactive) in the test on CAKI-1; > 95.7 µM (inactive) with IGROV-1; > 100 µM (inactive) in the test on HT-29; > 100 µM (inactive) with HOP-92. The GI50 in the test with MOLT-4, in the test with HL-60, in the test on KM12, with SF-539, with HOP-62 and in the test with CCRF-CEM was > 100 µM (inactive) in each case. The GI50 in the test on OVCAR-8, with 786-0, in the test with MDA-MB-231, in the test on SN12C, with COLO 205 and in the test on M14 was > 100 µM (inactive) each time. Also, the values for the GI50 in the test on NCI-H522 and with SK-MEL-28 were > 100 µM (inactive) and > 50.7 µM (inactive), respectively.

`Cc1ccc(S(=O)(=O)O)cc1.c1cc2c(c(NC3=NCCN3)c1)CCCC2`: the GI50 is > 100 µM (inactive) with RPMI-8226; > 100 µM (inactive) in the test on NCI-H460; > 100 µM (inactive) in the test with CAKI-1; > 100 µM (inactive) in the test with IGROV-1; 99.5 µM (inactive) with HT-29; > 100 µM (inactive) with HOP-92. For the same molecule, the GI50 in the test with MOLT-4, in the test on HL-60, in the test on KM12, in the test with SF-539, with HOP-62 and in the test with CCRF-CEM was > 100 µM (inactive) each time. Moreover, the GI50 in the test on OVCAR-8, in the test with 786-0, in the test with MDA-MB-231, with SN12C, in the test on COLO 205 and with M14 was > 100 µM (inactive) in each case. For the same molecule, the GI50 in the test on NCI-H522 and in the test with SK-MEL-28 was > 100 µM (inactive) each time.

For `Cc1[nH]n(-c2ncc(C(=O)O)c(=O)[nH]2)c(=O)c1CCO`, the GI50 with RPMI-8226 was > 100 µM (inactive); with NCI-H460, > 75.7 µM (inactive); in the test on CAKI-1 it was > 100 µM (inactive); in the test with IGROV-1, > 100 µM (inactive); in the test with HT-29, > 83.8 µM (inactive); in the test with HOP-92, > 88.1 µM (inactive). The GI50 was > 100 µM (inactive) in the test on MOLT-4; > 100 µM (inactive) in the test with HL-60; > 100 µM (inactive) in the test on KM12; > 84.9 µM (inactive) in the test with SF-539; > 100 µM (inactive) in the test with HOP-62; > 100 µM (inactive) in the test on CCRF-CEM. The GI50 in the test on OVCAR-8 is > 100 µM (inactive); in the test on 786-0, > 100 µM (inactive); in the test on MDA-MB-231, > 100 µM (inactive); in the test with SN12C it was > 100 µM (inactive); with COLO 205, > 88.9 µM (inactive); with M14 it was > 100 µM (inactive). Further, the GI50 in the test on NCI-H522 and in the test with SK-MEL-28 was > 100 µM (inactive) in each case.

Turning to `O=C1c2cc(I)ccc2N2CCN=C2N1Cc1ccccc1`, the GI50 is 92.7 µM (inactive) in the test on RPMI-8226; > 100 µM (inactive) in the test with NCI-H460; > 100 µM (inactive) with CAKI-1; > 100 µM (inactive) in the test with IGROV-1; > 100 µM (inactive) in the test with HT-29; 17.7 µM (inactive) in the test on HOP-92. Moreover, the GI50 with MOLT-4 is 4.46 µM (inactive); in the test on HL-60, 0.551 µM (active); in the test on KM12, > 100 µM (inactive); in the test on SF-539, 37.5 µM (inactive); in the test on HOP-62 it was > 100 µM (inactive); in the test on CCRF-CEM it was > 100 µM (inactive). In addition, the GI50 was 55 µM (inactive) in the test on OVCAR-8; 96.6 µM (inactive) in the test on 786-0; > 100 µM (inactive) in the test on MDA-MB-231; > 100 µM (inactive) with SN12C; > 100 µM (inactive) with COLO 205; > 100 µM (inactive) in the test on M14. The GI50 in the test on NCI-H522 and with SK-MEL-28 was > 100 µM (inactive) throughout.

Consider `C[N+](C)(C)CC(=O)N/N=C(/CC1OC(=O)c2ccccc21)c1ccccc1O` (stereo not given), for which the GI50 is 5.94 µM (inactive) with RPMI-8226; 24.4 µM (inactive) with NCI-H460; 34.1 µM (inactive) with CAKI-1; 37.8 µM (inactive) in the test on IGROV-1; 44.1 µM (inactive) in the test with HT-29; 29.7 µM (inactive) with HOP-92. Moreover, the GI50 is 16.2 µM (inactive) with MOLT-4; 16.2 µM (inactive) in the test with HL-60; 26.7 µM (inactive) in the test with KM12; 20.3 µM (inactive) with SF-539; 35.4 µM (inactive) in the test with HOP-62; 19 µM (inactive) in the test with CCRF-CEM. Moreover, the GI50 with OVCAR-8 is 29.2 µM (inactive); with 786-0 it was 25.8 µM (inactive); in the test on MDA-MB-231 it was 95.9 µM (inactive); with SN12C it was 49 µM (inactive); with COLO 205, 68.2 µM (inactive); in the test on M14, > 100 µM (inactive). Moreover, the GI50 with NCI-H522 was 46.5 µM (inactive); in the test with SK-MEL-28, 29.2 µM (inactive).

As for `CCNC(=O)Cc1nc2c(N)ncnc2n1C1OC(CO)C(O)C1O` (stereo not given), the GI50 with RPMI-8226, in the test on NCI-H460, in the test on CAKI-1, in the test with IGROV-1, in the test with HT-29 and with HOP-92 was > 100 µM (inactive) throughout. The GI50 with MOLT-4 is > 100 µM (inactive); with HL-60, 91.4 µM (inactive); in the test with KM12, > 100 µM (inactive); in the test on SF-539, > 100 µM (inactive); in the test on HOP-62, > 100 µM (inactive); in the test on CCRF-CEM, > 10 µM (inactive). Besides, the GI50 with OVCAR-8 was > 100 µM (inactive); with 786-0 it was > 100 µM (inactive); in the test with MDA-MB-231 it was > 100 µM (inactive); in the test on SN12C it was > 100 µM (inactive); in the test with COLO 205, 74 µM (inactive); in the test on M14, > 100 µM (inactive). The GI50 in the test with NCI-H522 and with SK-MEL-28 was > 100 µM (inactive) in each case.

Consider `COc1cc2ccc(/C=C\[N+](=O)[O-])cc2cc1OC`, for which the GI50 in the test with RPMI-8226 is 1.67 µM (inactive); with NCI-H460, 15.7 µM (inactive); in the test with CAKI-1 it was 5.06 µM (inactive); with IGROV-1 it was 1.97 µM (inactive); in the test with HT-29, 2 µM (inactive); with HOP-92, 4.41 µM (inactive). For the same molecule, the GI50 in the test with MOLT-4 is 5.09 µM (inactive); with HL-60 it was 1.97 µM (inactive); in the test with KM12, 6.85 µM (inactive); in the test on SF-539, 1.97 µM (inactive); with HOP-62 it was 2.83 µM (inactive); with CCRF-CEM it was 1.44 µM (inactive). The GI50 in the test on OVCAR-8 was 3.12 µM (inactive); with 786-0 it was 1.68 µM (inactive); in the test on MDA-MB-231, 2.84 µM (inactive); in the test on SN12C it was 2.37 µM (inactive); in the test on COLO 205, 4.07 µM (inactive); with M14, 2.65 µM (inactive). Moreover, the results for the GI50 with NCI-H522 and in the test on SK-MEL-28 were 1.13 µM (inactive) and 2.66 µM (inactive), respectively.
